Measurements taken from the NIST ThermoML archive (doi:10.1021/acs.jced.6b00455).

Assay: mn = molality of the nth substance listed, in mol/kg
Settings: 101 kPa, Liquid, Alternating current cell with electrodes

C[N+](C)(C)CCO.O=C([O-])C(F)(F)C(F)(F)C(F)(F)C(F)(F)F [(2-hydroxyethyl)trimethylammonium perfluoropentanoate] + O
Settings | electrical conductivity [S/m]
293.15 K, m1 = 0.000529 | 0.0033
293.15 K, m1 = 0.001164 | 0.0074
293.15 K, m1 = 0.001886 | 0.012
293.15 K, m1 = 0.002281 | 0.0144
293.15 K, m1 = 0.002766 | 0.0174
293.15 K, m1 = 0.003311 | 0.0207
293.15 K, m1 = 0.003805 | 0.0236
293.15 K, m1 = 0.004377 | 0.0271
293.15 K, m1 = 0.004908 | 0.0302
293.15 K, m1 = 0.005409 | 0.033
293.15 K, m1 = 0.005979 | 0.0364
293.15 K, m1 = 0.006697 | 0.0404
293.15 K, m1 = 0.007467 | 0.0447
293.15 K, m1 = 0.008082 | 0.0481
293.15 K, m1 = 0.00858 | 0.0508
293.15 K, m1 = 0.009905 | 0.058
293.15 K, m1 = 0.01142 | 0.066
293.15 K, m1 = 0.0124 | 0.0711
293.15 K, m1 = 0.01324 | 0.0753
293.15 K, m1 = 0.01399 | 0.0792
293.15 K, m1 = 0.01513 | 0.085
293.15 K, m1 = 0.01598 | 0.0891
293.15 K, m1 = 0.01695 | 0.0936
293.15 K, m1 = 0.01789 | 0.098
293.15 K, m1 = 0.01884 | 0.102
293.15 K, m1 = 0.01994 | 0.108
293.15 K, m1 = 0.02076 | 0.112
293.15 K, m1 = 0.02179 | 0.116
293.15 K, m1 = 0.02264 | 0.12
293.15 K, m1 = 0.02348 | 0.123
293.15 K, m1 = 0.0245 | 0.128
298.15 K, m1 = 0.00173 | 0.0127
298.15 K, m1 = 0.003076 | 0.0222
298.15 K, m1 = 0.004761 | 0.0337
298.15 K, m1 = 0.006222 | 0.0434
298.15 K, m1 = 0.007398 | 0.0509
298.15 K, m1 = 0.008599 | 0.0589
298.15 K, m1 = 0.01005 | 0.0687
298.15 K, m1 = 0.01198 | 0.0799
298.15 K, m1 = 0.01368 | 0.0892
298.15 K, m1 = 0.01543 | 0.0996
298.15 K, m1 = 0.01692 | 0.108
298.15 K, m1 = 0.0184 | 0.116
298.15 K, m1 = 0.02111 | 0.131
298.15 K, m1 = 0.02244 | 0.138
298.15 K, m1 = 0.02415 | 0.148
298.15 K, m1 = 0.02609 | 0.158
298.15 K, m1 = 0.02818 | 0.17
298.15 K, m1 = 0.031 | 0.183
298.15 K, m1 = 0.03389 | 0.198
298.15 K, m1 = 0.03746 | 0.215
298.15 K, m1 = 0.04011 | 0.228
298.15 K, m1 = 0.04312 | 0.245
303.15 K, m1 = 0.000602 | 0.005
303.15 K, m1 = 0.001118 | 0.0092
303.15 K, m1 = 0.001883 | 0.0153
303.15 K, m1 = 0.002669 | 0.0214
303.15 K, m1 = 0.002939 | 0.0235
303.15 K, m1 = 0.003765 | 0.0297
303.15 K, m1 = 0.004158 | 0.0325
303.15 K, m1 = 0.004947 | 0.0388
303.15 K, m1 = 0.005615 | 0.0446
303.15 K, m1 = 0.006164 | 0.0494
303.15 K, m1 = 0.006758 | 0.0518
303.15 K, m1 = 0.007514 | 0.0567
303.15 K, m1 = 0.008082 | 0.0606
303.15 K, m1 = 0.008631 | 0.0643
303.15 K, m1 = 0.009197 | 0.0673
303.15 K, m1 = 0.01012 | 0.0743
303.15 K, m1 = 0.01148 | 0.0832
303.15 K, m1 = 0.01208 | 0.0872
303.15 K, m1 = 0.0126 | 0.0906
303.15 K, m1 = 0.0131 | 0.0936
303.15 K, m1 = 0.01373 | 0.0973
303.15 K, m1 = 0.01442 | 0.102
303.15 K, m1 = 0.01495 | 0.105
303.15 K, m1 = 0.01641 | 0.114
303.15 K, m1 = 0.01705 | 0.118
303.15 K, m1 = 0.01772 | 0.121
303.15 K, m1 = 0.01824 | 0.124
303.15 K, m1 = 0.01885 | 0.128
303.15 K, m1 = 0.01941 | 0.131
303.15 K, m1 = 0.01993 | 0.134
303.15 K, m1 = 0.02055 | 0.138
303.15 K, m1 = 0.02116 | 0.142
303.15 K, m1 = 0.02184 | 0.146
303.15 K, m1 = 0.02259 | 0.15
303.15 K, m1 = 0.02308 | 0.153
303.15 K, m1 = 0.0237 | 0.157
303.15 K, m1 = 0.0247 | 0.164
303.15 K, m1 = 0.02557 | 0.168
308.15 K, m1 = 0.000318 | 0.0029
308.15 K, m1 = 0.000786 | 0.007
308.15 K, m1 = 0.001299 | 0.0115
308.15 K, m1 = 0.001909 | 0.0169
308.15 K, m1 = 0.002425 | 0.021
308.15 K, m1 = 0.002911 | 0.0256
308.15 K, m1 = 0.003184 | 0.0277
308.15 K, m1 = 0.003945 | 0.035
308.15 K, m1 = 0.004657 | 0.0404
308.15 K, m1 = 0.005206 | 0.0449
308.15 K, m1 = 0.005836 | 0.0493
308.15 K, m1 = 0.006331 | 0.0529
308.15 K, m1 = 0.006772 | 0.0563
308.15 K, m1 = 0.007443 | 0.0629
308.15 K, m1 = 0.008421 | 0.0711
308.15 K, m1 = 0.008974 | 0.0763
308.15 K, m1 = 0.009871 | 0.0832
308.15 K, m1 = 0.01044 | 0.0864
308.15 K, m1 = 0.01092 | 0.0897
308.15 K, m1 = 0.01159 | 0.0936
308.15 K, m1 = 0.01221 | 0.0982
308.15 K, m1 = 0.01248 | 0.101
308.15 K, m1 = 0.01314 | 0.104
308.15 K, m1 = 0.01361 | 0.108
308.15 K, m1 = 0.01442 | 0.114
308.15 K, m1 = 0.01492 | 0.119
308.15 K, m1 = 0.01568 | 0.125
308.15 K, m1 = 0.0164 | 0.13
308.15 K, m1 = 0.01694 | 0.134
308.15 K, m1 = 0.01787 | 0.14
308.15 K, m1 = 0.01861 | 0.145
308.15 K, m1 = 0.01941 | 0.151
308.15 K, m1 = 0.02104 | 0.162
308.15 K, m1 = 0.02193 | 0.168
308.15 K, m1 = 0.02283 | 0.173
308.15 K, m1 = 0.02369 | 0.178
308.15 K, m1 = 0.02427 | 0.182
308.15 K, m1 = 0.02502 | 0.188
308.15 K, m1 = 0.02563 | 0.192
313.15 K, m1 = 0.000187 | 0.0015
313.15 K, m1 = 0.000688 | 0.0067
313.15 K, m1 = 0.001827 | 0.0169
313.15 K, m1 = 0.002361 | 0.0217
313.15 K, m1 = 0.002859 | 0.0266
313.15 K, m1 = 0.003424 | 0.0322
313.15 K, m1 = 0.00399 | 0.0371
313.15 K, m1 = 0.004604 | 0.0421
313.15 K, m1 = 0.005344 | 0.0499
313.15 K, m1 = 0.005863 | 0.0548
313.15 K, m1 = 0.006345 | 0.0593
313.15 K, m1 = 0.006846 | 0.064
313.15 K, m1 = 0.008054 | 0.074
313.15 K, m1 = 0.008628 | 0.079
313.15 K, m1 = 0.009481 | 0.0864
313.15 K, m1 = 0.009912 | 0.0907
313.15 K, m1 = 0.01048 | 0.0955
313.15 K, m1 = 0.01099 | 0.0999
313.15 K, m1 = 0.01153 | 0.104
313.15 K, m1 = 0.0121 | 0.11
313.15 K, m1 = 0.01268 | 0.114
313.15 K, m1 = 0.01328 | 0.119
313.15 K, m1 = 0.01388 | 0.124
313.15 K, m1 = 0.01459 | 0.13
313.15 K, m1 = 0.01545 | 0.136
313.15 K, m1 = 0.01599 | 0.141
313.15 K, m1 = 0.0169 | 0.148
313.15 K, m1 = 0.01817 | 0.157
313.15 K, m1 = 0.01879 | 0.162
313.15 K, m1 = 0.01965 | 0.169
313.15 K, m1 = 0.02019 | 0.172
313.15 K, m1 = 0.02082 | 0.177
313.15 K, m1 = 0.02134 | 0.18
313.15 K, m1 = 0.02194 | 0.184
313.15 K, m1 = 0.02255 | 0.19
313.15 K, m1 = 0.02328 | 0.195
313.15 K, m1 = 0.02409 | 0.2
